According to PubChem BioAssay (NCI):
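Growth conditions: 96-well plates. Treatment: test compound, 48 hours, 5 concentrations. Analysis: linear interpolation between bracketing concentrations; unreached endpoints set to highest concentration. The concentration for 50% growth inhibition is given as GI50. TGI marks complete inhibition of growth.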

system: EKVX NSCLC; assay: NCI tumour cell line growth inhibition, 48 h

SMILES | TGI | GI50
COC(=O)/C(=N\NC(=S)NN)C(C(=O)C(=O)Nc1ccccc1C(N)=O)c1nc2ccccc2[nH]c1=O (stereo not given) | > 100 µM | 
CC/C=C\C/C=C\C1CC(=O)NCCCNCCCCN1 (stereo not given) | > 100 µM | 
CC1CCCC(C(=O)/C(=C/c2cccc(Cl)c2)C(=O)C(=O)O)C1 (stereo not given) | > 100 µM | 
CC(=O)c1c(C)n([O-])c2cc(C)c(C)cc2[n+]1=O | > 100 µM | 
N#CC(C#N)=Cc1cccc(Oc2ccccc2)c1 | > 100 µM | 
COc1ccc(/C=C/C(=O)c2sc(-n3nc(-c4ccccc4)cc3-c3ccccc3)nc2C)cc1OC | > 100 µM | 
NC(CCSCC(F)F)C(=O)O (stereo not given) | > 100 µM | 
COC(=O)NC/C=C\c1nc(CC/C=C\C(=O)OC2CC3CC(=O)O[C@@H](/C=C/CC(C)C)C[C@@H]4CCC(C)C(C[C@@H](OC)CC(C2)O3)O4)co1 (stereo not given in full) | > 100 µM | < 0.01 µM
CC1(C)OC(=O)C=C([O-])O1.CC1(C)OC(=O)C=C([O-])O1.O=c1c(O)c(-c2ccc([O-])cc2[O-])oc2cc(O)cc(O)c12.[Ti+4] | > 100 µM | 
Nc1ccc(SC23CC4CC(CC(C4)C2)C3)cc1 | > 100 µM | 
CCOC(=O)[C@@H](C)C[C@H](Cc1ccccc1)NC(=O)c1csc([C@@H](C[C@H](C(C)C)N(C)C(=O)[C@@H](NC(=O)[C@H]2CCCCN2C)C(C)(C)C)OC(C)=O)n1 | > 16.7 µM | < 0.00167 µM

system: SK-MEL-2 melanoma; assay: NCI tumour cell line growth inhibition, 48 h

SMILES | TGI | GI50
CN(C)C(=S)/N=c1\ss/c(=N\S(=O)(=O)c2ccccc2)n1-c1ccccc1 | > 100 µM | 
N#Cc1c(N)c(C(=O)O)nn(-c2cccc(C(F)(F)F)c2)c1=O | > 100 µM | 
CCOC(=O)Cc1nc(/C(C#N)=C/c2ccco2)[nH]c(=O)c1C#N | > 100 µM | 
CC1=Nc2c(ccc3c2C(=O)c2ccccc2C3=O)NC(c2ccncc2)C1 (stereo not given) | > 100 µM | > 100 µM
Cc1ccc(C(=O)CC(Sc2cccc(Cl)c2Cl)c2ccc(Cl)cc2)cc1C (stereo not given) | 39 µM | 20.2 µM
COc1cc(/C=C\c2ccc(O)cc2)cc(OC)c1OC | > 100 µM | 
C=C(COC(C)=O)CC(/C=C(\C)CCC=C(C)C)OC(C)=O (stereo not given) | > 100 µM | 
CNC(=O)c1cn(C[C@H](F)CCc2ccc(NC(=O)Cc3cc(OC4CC(F)(F)C4)cc(C)n3)nn2)nn1 | > 100 µM | > 100 µM
COC(=O)C(Cc1ccccc1)N/C=C\C(=O)c1ccc(Cl)cc1 (stereo not given) | > 100 µM | 59.9 µM
Oc1c2c(c(O)c3ccccc13)=N[C@@H](c1ccccc1)[C@H](c1ccccc1)N=2 | > 100 µM | 
CNC(=O)c1ccc(-c2cnc3ncc(Cc4ccc5ncccc5c4)n3n2)cc1F | > 100 µM | 97.1 µM
CCOc1cccc2nc3cccc(C(=O)NCCN(C)C)c3nc12 | 3.86 µM | 
Cc1cc(C)nc(NS(=O)(=O)c2ccc(Nc3c4ccccc4nc4c(C(=O)N5CCN(CCOS(C)(=O)=O)CC5)ccc(Cl)c34)cc2)n1 | > 100 µM | 
Clc1cc(Cl)c2c(Cl)cc(Cl)c3c2c1N=S=N3 | > 100 µM | 
CN1CCN(C)C1c1cccc(C2N(C)CCN2C)c1 | > 100 µM | 
CC(=O)OCCOCBr | > 100 µM | 
O=C1c2ccccc2-c2c1c1ccccc1c(=O)n2CCNCCCNCCn1c2c(c3ccccc3c1=O)C(=O)c1ccccc1-2 | 2.2 µM | 0.514 µM

SMILES | TGI | GI50
CC(O)CN1C(=O)NC(Cc2ccccc2)C1=O (stereo not given) | > 100 µM | 
O=C(c1ccccc1)[C@H]1Nc2cnccc2C2c3ccccc3CC21 (stereo not given in full) | 29.9 µM | 
CN(C)c1nc(-c2cccs2)n2nc(-c3ccc(Cl)cc3)cc2n1 | > 100 µM | 9.03 µM
COc1cc(/C=C2\CC3C4CC=C5CC(N6CCCC6)CC[C@]5(C)C4CC[C@]3(C)C2OC(C)=O)ccc1OCCN1CCCC1 (stereo not given in full) | 3.7 µM | 2.09 µM
COc1ccc(C(=O)C(C(=O)CCC(=O)Nc2cccc(C(F)(F)F)c2)c2ccccc2)cc1 (stereo not given) | > 100 µM | 
NC1=NC(=O)C(CC(=O)Nc2ccc([N+](=O)[O-])cc2[N+](=O)[O-])S1 (stereo not given) | > 100 µM | 
O=C1c2ccccc2-c2cccc3ccc(Cc4ccccc4)c1c23 | > 100 µM | 
COC(=O)/C(=N\NC(=S)NN)C(C(=O)C(=O)Nc1ccccc1C(N)=O)c1nc2ccccc2[nH]c1=O (stereo not given) | > 100 µM | 
CC/C=C\C/C=C\C1CC(=O)NCCCNCCCCN1 (stereo not given) | > 100 µM | 
CC(=O)c1c(C)n([O-])c2cc(C)c(C)cc2[n+]1=O | > 100 µM | 
N#CC(C#N)=Cc1cccc(Oc2ccccc2)c1 | 49 µM | 
Cc1ncc([N+](=O)[O-])n1CCNC(=O)CCCCn1ccnc1[N+](=O)[O-] | > 100 µM | 
COc1ccc(/C=C/C(=O)c2sc(-n3nc(-c4ccccc4)cc3-c3ccccc3)nc2C)cc1OC | > 100 µM | 
COC(=O)NC/C=C\c1nc(CC/C=C\C(=O)OC2CC3CC(=O)O[C@@H](/C=C/CC(C)C)C[C@@H]4CCC(C)C(C[C@@H](OC)CC(C2)O3)O4)co1 (stereo not given in full) | 94.1 µM | 12.8 µM
CC1(C)OC(=O)C=C([O-])O1.CC1(C)OC(=O)C=C([O-])O1.O=c1c(O)c(-c2ccc([O-])cc2[O-])oc2cc(O)cc(O)c12.[Ti+4] | 67.5 µM | 
Nc1ccc(SC23CC4CC(CC(C4)C2)C3)cc1 | > 100 µM | 
CCOC(=O)[C@@H](C)C[C@H](Cc1ccccc1)NC(=O)c1csc([C@@H](C[C@H](C(C)C)N(C)C(=O)[C@@H](NC(=O)[C@H]2CCCCN2C)C(C)(C)C)OC(C)=O)n1 | > 16.7 µM | < 0.00167 µM

system: U251 CNS; assay: NCI tumour cell line growth inhibition, 48 h

SMILES | TGI | GI50
CN(C)C(=S)/N=c1\ss/c(=N\S(=O)(=O)c2ccccc2)n1-c1ccccc1 | > 100 µM | 
N#Cc1c(N)c(C(=O)O)nn(-c2cccc(C(F)(F)F)c2)c1=O | > 100 µM | 
CCOC(=O)Cc1nc(/C(C#N)=C/c2ccco2)[nH]c(=O)c1C#N | > 100 µM | 
CC1=Nc2c(ccc3c2C(=O)c2ccccc2C3=O)NC(c2ccncc2)C1 (stereo not given) | > 100 µM | > 100 µM
Cc1ccc(C(=O)CC(Sc2cccc(Cl)c2Cl)c2ccc(Cl)cc2)cc1C (stereo not given) | 25.8 µM | 11.5 µM
COc1cc(/C=C\c2ccc(O)cc2)cc(OC)c1OC | > 23.6 µM | 
Cc1ccc2/c(=C/c3ccc(N(C)C)cc3)c3cc(-c4ccccc4)[n+](C)n3c2c1 |  | < 0.01 µM
C=C(COC(C)=O)CC(/C=C(\C)CCC=C(C)C)OC(C)=O (stereo not given) | > 100 µM | 
CNC(=O)c1cn(C[C@H](F)CCc2ccc(NC(=O)Cc3cc(OC4CC(F)(F)C4)cc(C)n3)nn2)nn1 | > 100 µM | 0.102 µM
COC(=O)C(Cc1ccccc1)N/C=C\C(=O)c1ccc(Cl)cc1 (stereo not given) | 51.7 µM | 22 µM
CC1(C)CCc2cc3c(cc2O1)OCCC3=O | > 100 µM | 
Oc1c2c(c(O)c3ccccc13)=N[C@@H](c1ccccc1)[C@H](c1ccccc1)N=2 | > 100 µM | 
c1cc[c]([Sn]([S]c2cccc3cccnc23)([c]2ccccc2)[c]2ccccc2)cc1 | 0.11 µM | 0.0347 µM
CNC(=O)c1ccc(-c2cnc3ncc(Cc4ccc5ncccc5c4)n3n2)cc1F | > 100 µM | 75.1 µM
O=C1CCn2c([nH]c3cccc4cccc2c43)=N1 | > 100 µM | 
CCOc1cccc2nc3cccc(C(=O)NCCN(C)C)c3nc12 | 9.26 µM | 
Cc1cc(C)nc(NS(=O)(=O)c2ccc(Nc3c4ccccc4nc4c(C(=O)N5CCN(CCOS(C)(=O)=O)CC5)ccc(Cl)c34)cc2)n1 | > 100 µM | 
Clc1cc(Cl)c2c(Cl)cc(Cl)c3c2c1N=S=N3 | > 100 µM | 
CN1CCN(C)C1c1cccc(C2N(C)CCN2C)c1 | > 100 µM | 

SMILES | TGI | GI50
CC(=O)OCCOCBr | > 100 µM | 
O=C1c2ccccc2-c2c1c1ccccc1c(=O)n2CCNCCCNCCn1c2c(c3ccccc3c1=O)C(=O)c1ccccc1-2 | 0.371 µM | 0.146 µM
CC(O)CN1C(=O)NC(Cc2ccccc2)C1=O (stereo not given) | > 100 µM | 
O=C(c1ccccc1)[C@H]1Nc2cnccc2C2c3ccccc3CC21 (stereo not given in full) | 48.8 µM | 
COc1cc(/C=C2\CC3C4CC=C5CC(N6CCCC6)CC[C@]5(C)C4CC[C@]3(C)C2OC(C)=O)ccc1OCCN1CCCC1 (stereo not given in full) | 3.73 µM | 1.81 µM
COc1ccc(C(=O)C(C(=O)CCC(=O)Nc2cccc(C(F)(F)F)c2)c2ccccc2)cc1 (stereo not given) | > 100 µM | 
NC1=NC(=O)C(CC(=O)Nc2ccc([N+](=O)[O-])cc2[N+](=O)[O-])S1 (stereo not given) | > 100 µM | 
O=C1c2ccccc2-c2cccc3ccc(Cc4ccccc4)c1c23 | > 100 µM | 
COC(=O)/C(=N\NC(=S)NN)C(C(=O)C(=O)Nc1ccccc1C(N)=O)c1nc2ccccc2[nH]c1=O (stereo not given) | > 100 µM | 
CC/C=C\C/C=C\C1CC(=O)NCCCNCCCCN1 (stereo not given) | > 100 µM | 
CC1CCCC(C(=O)/C(=C/c2cccc(Cl)c2)C(=O)C(=O)O)C1 (stereo not given) | 32.5 µM | 
CC(=O)c1c(C)n([O-])c2cc(C)c(C)cc2[n+]1=O | > 100 µM | 
N#CC(C#N)=Cc1cccc(Oc2ccccc2)c1 | 18.9 µM | 
Cc1ncc([N+](=O)[O-])n1CCNC(=O)CCCCn1ccnc1[N+](=O)[O-] | > 100 µM | 
COc1ccc(/C=C/C(=O)c2sc(-n3nc(-c4ccccc4)cc3-c3ccccc3)nc2C)cc1OC | > 100 µM | 
NC(CCSCC(F)F)C(=O)O (stereo not given) | > 100 µM | 
COC(=O)NC/C=C\c1nc(CC/C=C\C(=O)OC2CC3CC(=O)O[C@@H](/C=C/CC(C)C)C[C@@H]4CCC(C)C(C[C@@H](OC)CC(C2)O3)O4)co1 (stereo not given in full) | 72.4 µM | < 0.01 µM
Nc1ccc(SC23CC4CC(CC(C4)C2)C3)cc1 | > 100 µM | 
CCOC(=O)[C@@H](C)C[C@H](Cc1ccccc1)NC(=O)c1csc([C@@H](C[C@H](C(C)C)N(C)C(=O)[C@@H](NC(=O)[C@H]2CCCCN2C)C(C)(C)C)OC(C)=O)n1 | > 16.7 µM | < 0.00167 µM
